{
  "source": "paper PMC7999182",
  "about": "“Interaction of Remdesivir with Clinically Relevant Hepatic Drug Uptake Transporters” (Pharmaceutics, 2021)",
  "key": {"OATP1B1": {"tested_on": "OATP1B1", "design": "method as in earlier work", "settings": "prototypic substrate not stated; cited from earlier work"}, "OATP1B1*5": {"target": "T1, OATP1B1*5 (Homo sapiens, UniProt Q9Y6L6, V174A)", "T1 construct": "expressed in transfected cells", "T1 sequence (Q9Y6L6 1-691 V174A)": "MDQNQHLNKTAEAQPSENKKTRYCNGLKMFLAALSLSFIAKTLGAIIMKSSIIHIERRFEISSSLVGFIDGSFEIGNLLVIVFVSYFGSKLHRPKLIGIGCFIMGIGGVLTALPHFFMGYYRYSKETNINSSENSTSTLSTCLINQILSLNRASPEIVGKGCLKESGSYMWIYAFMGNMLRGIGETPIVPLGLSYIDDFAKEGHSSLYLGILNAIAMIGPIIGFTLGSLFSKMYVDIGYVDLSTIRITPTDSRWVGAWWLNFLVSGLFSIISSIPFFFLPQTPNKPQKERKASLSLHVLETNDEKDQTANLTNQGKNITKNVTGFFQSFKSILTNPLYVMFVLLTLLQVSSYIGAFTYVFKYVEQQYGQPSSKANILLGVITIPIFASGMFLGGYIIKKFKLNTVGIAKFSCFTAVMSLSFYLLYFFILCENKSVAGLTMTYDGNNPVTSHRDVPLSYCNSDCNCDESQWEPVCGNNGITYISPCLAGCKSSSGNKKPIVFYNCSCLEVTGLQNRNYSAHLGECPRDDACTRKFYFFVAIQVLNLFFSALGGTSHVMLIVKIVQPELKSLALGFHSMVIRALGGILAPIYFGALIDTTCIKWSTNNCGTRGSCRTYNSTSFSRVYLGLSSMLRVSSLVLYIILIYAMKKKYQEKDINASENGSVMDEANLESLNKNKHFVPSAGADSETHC", "test": "Remdesivir uptake into HEK cells stably expressing OATP1B1*5 vs vector control", "assay_type": "in vitro ADME", "settings": "0.5 µM remdesivir, 10 min", "source_text": "Generation, cultivation and characterization of human embryonic kidney (HEK) cells stably expressing OATP1B1 refseq (=OATP1B1*1a), OATP1B1*1b, OATP1B1*5 and OATP1B1*15 [18], OATP1B3 [19], OATP2B1 [13] and OCT1 [20] have been described previously. OATP1B1 cells were cultivated in minimal essential medium (Life Technologies, Paisley, UK) and OATP1B3, OATP2B1 and OCT1 cells were cultivated in Dulbecco’s modified Eagle medium (Sigma, Darmstadt, Germany). Cultivation media were supplemented with 10% fetal calf serum, 100 U/mL penicillin and 100 µg/mL streptomycin. Cells were grown at 37 °C and 5% CO2. Functionality of the cells was confirmed by measuring uptake of prototypic substrates (see Section 2.3 and supplementary material).\nUptake assays were conducted at 37 °C according to previously described methods. For this, cells were seeded in 24-well plates (320,000 cells/well) and cultured for 2 days. Cells were then incubated for a further 24 h in culture medium with 5 mM butyrate (OATP1B3, OATP2B1, OCT1) or 10 mM butyrate (OATP1B1) to increase protein levels of recombinant transporters. […]\nRemdesivir was determined by UHPLC-MS-MS analysis on an Agilent 1290 infinity UHPLC system coupled to an Agilent 6495B triple quadrupole mass spectrometer (Agilent, Waldbronn, Germany) similar to a recently published method. […]"}, "[1]": {"settings": "cited from earlier work"}},
  "data": [
    {"smiles": "CCC(CC)COC(=O)[C@H](C)N[P@](=O)(OC[C@H]1O[C@@](C#N)(c2ccc3c(N)ncnn23)[C@H](O)[C@@H]1O)Oc1ccccc1", "note": "[Remdesivir]", "values": [
      {"measurement": "IC50", "setting": "OATP1B1", "result": 2800, "unit": "nM"},
      {"measurement": "Uptake vs vector-transfected control cells", "setting": "OATP1B1*5", "result": "significantly lower uptake"},
      {"measurement": "peak plasma concentration", "setting": "[1]; 30 min after iv administration of 200 mg remdesivir for 30 min", "result": "~10", "unit": "µM"},
      {"measurement": "t1/2", "setting": "[1]", "result": 1, "unit": "h"},
      {"measurement": "Cmax", "setting": "[1]; intravenous 100 mg remdesivir, healthy adults", "result": 3.7, "unit": "µM"}
    ]}
  ]
}
